These results are taken from publication PMC11460631, “Inhibition of transient receptor potential vanilloid 3 channels by antimalarial hydroxychloroquine alleviates TRPV3-dependent dermatitis” (The Journal of Biological Chemistry, 2024).

In assay [1] the target is T1, TRPV3 (Homo sapiens, UniProt Q8NET8).
T1 construct: YFP or GFP; expressed in transfected cells; host or cells: HEK293T
T1 sequence (Q8NET8 1-790): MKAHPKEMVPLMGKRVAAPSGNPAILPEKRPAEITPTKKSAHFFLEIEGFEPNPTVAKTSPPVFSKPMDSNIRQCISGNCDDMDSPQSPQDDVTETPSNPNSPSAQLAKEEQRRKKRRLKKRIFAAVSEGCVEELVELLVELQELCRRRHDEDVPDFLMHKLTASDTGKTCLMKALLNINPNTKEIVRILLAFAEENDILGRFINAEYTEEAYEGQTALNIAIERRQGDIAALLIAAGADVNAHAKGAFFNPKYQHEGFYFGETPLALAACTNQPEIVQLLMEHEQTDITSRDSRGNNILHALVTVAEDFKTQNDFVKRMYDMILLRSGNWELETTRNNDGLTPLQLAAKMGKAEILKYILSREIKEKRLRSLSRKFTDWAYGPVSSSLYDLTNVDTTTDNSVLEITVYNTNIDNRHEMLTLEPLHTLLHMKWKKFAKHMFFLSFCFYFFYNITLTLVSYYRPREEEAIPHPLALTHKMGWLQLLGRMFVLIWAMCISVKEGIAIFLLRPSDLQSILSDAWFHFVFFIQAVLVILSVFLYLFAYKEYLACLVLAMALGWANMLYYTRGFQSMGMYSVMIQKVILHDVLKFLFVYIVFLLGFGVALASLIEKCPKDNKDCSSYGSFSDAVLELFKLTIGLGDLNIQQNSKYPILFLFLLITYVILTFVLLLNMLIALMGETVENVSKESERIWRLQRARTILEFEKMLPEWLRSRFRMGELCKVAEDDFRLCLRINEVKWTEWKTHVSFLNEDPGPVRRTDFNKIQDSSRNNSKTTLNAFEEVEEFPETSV
Kind of assay: Whole-cell patch-clamp recordings of TRPV3 currents in transfected HEK293T cells. As to conditions: 1 mM agonist, whole-cell, n = 5 cells. In kind it is cell-based. The procedure: (§1) HEK293T cells are cultured using Dulbecco's modified Eagle's medium containing 10% fetal bovine serum and 1% penicillin-streptomycin in a cell incubator with 5% CO2 at 37 °C. Plasmids of murine TRPV1, TRPV4, TRPM8, and human TRPV3, TRPA1 are labeled with YFP or GFP as indicators for subsequent electrophysiological recordings. Complementary DNA constructs of ion channels were transiently transfected with Lipofectamine 3000 (Invitrogen). And 12 to 18 h after transient transfection, electrophysiological recordings were performed.
(§2) Patch-clamp recordings were carried out with a HEKA EPC10 amplifier controlled by PatchMaster software (HEKA; https://www.heka.com/products/products_main.html#soft_pm) ([36]). Patch pipettes were prepared from borosilicate glass and fire-polished to the resistance of 3 to 8 MΩ by P-97 puller for whole-cell recordings. For single-channel recordings, patch pipettes were fire-polished to a higher resistance of 6 to 10 MΩ. Both bath solution and pipette solution contained 130 mM NaCl, 10 mM glucose, 0.2 mM EDTA, and 3 mM Hepes and were adjusted to pH 7.2 to 7.4 with NaOH. Whole-cell recordings and single-channel recordings were performed at ± 80 mV. The current was sampled at 10 kHz and filtered at 2.9 kHz. All recordings were performed at room temperature (25 °C). A gravity-driven system (RSC-200, Bio-Logic) with freely rotated perfusion tubes was used for the perfusion of ligands. Bath and ligand solutions were delivered through separate tubes to minimize the mixing of solutions. Patch pipette holding cells were placed in front of the perfusion tube outlet for perfusion.
All data from whole-cell recordings were analyzed in Igor Pro (WaveMetrics). IC50 values were determined by fitting the Hill equation to concentration-response relationships. Data are shown as mean ± SEM. Statistical significance between two groups was conducted with an unpaired two-tailed t test, and statistical significance among multiple groups was conducted with one-way ANOVA using Dunnett’s multiple comparisons test or Tukey's post hoc test. Differences were regarded as statistically significant with ∗, p < 0.05; ∗∗, p < 0.01; ∗∗∗, p < 0.001; ∗∗∗∗, and p < 0.0001; N.S., no significance.
(In general: The patch-clamp technique gives a direct electrical read-out from membranes.)

Assay [2] concerns the target T1, TRPV3. Kind of assay: Single-channel recordings of TRPV3 in the inside-out configuration. In kind it is cell-based. The following applies: 1 mM 2-APB alone, −80 mV. The procedure:
as §1
as §2, with “perfusion. Igor Pro versions 5.05 and 9.05 (WaveMetrics; https://www.wavemetrics.com/products/igorpro) were used to analyze the data.” for “perfusion.”

Assay [3] addresses T1, TRPV3. Kind of assay: Calcium imaging (Fluo-4/AM) of TRPV3-expressing HEK293T cells. It is filed as cell-based. As for the experimental part: as §1
Calcium imaging assays were performed as described previously ([37]). Transiently transfected HEK293 cells seeded on 25 mm coverslips were washed twice with an extracellular solution containing 140 mM NaCl, 5 mM KCl, 2 mM MgCl2, 2 mM CaCl2, 10 mM glucose, and 10 mM Hepes (pH 7.4), followed by incubation in 2 ml of extracellular solution supplemented with 2 μM Fluo-4/AM as a Molecular Probes at room temperature for 60 min. Fluorescence images of HEK293T cells were acquired with a Nikon Eclipse Ti2 microscope with an optiMOS charge-coupled device camera controlled by the Ocular Software ([…]; https://www.photometrics.com/products/ocular).

The next assay has as its system C57BL/6J male mice. Description: Carvacrol-induced AD-like mouse model: skin appearance scores and H&E epidermal thickness. The following applies: score of 0 to 4, topical, 5 days; for erythema score: 2% carvacrol alone or with HCQ 2 mg/ml or DXM 1 mg/ml. In kind it is in vivo. As for the experimental part: (§3) We therefore generated a carvacrol-induced AD mouse model to test the effect of HCQ.
To investigate the effect of HCQ on carvacrol-induced dermatitis in animals, C57BL/6J male mice (aged 6 weeks) were obtained from the Animal Experimental Center of Hangzhou Medical College (Hangzhou, Zhejiang Province). Mice were housed and maintained in an environment with a 12-h light/dark cycle and a controlled temperature of 22.0 ± 2.0 °C. Food and water were accessible ad libitum. All the animal procedures were approved by the Institutional Animal Care & Use Committee of Zhejiang Center of Laboratory Animals (ZJCLA).
(§4) To generate an AD-like mice model, 2% carvacrol (dissolved in 30% ethanol solution) was topically smeared onto the mice dorsum 1 day after hair removal with a depilatory cream (Vetin Depilatory Cream). Mice received a topical administration of an equal volume (200 μl) of 2% carvacrol or in the presence of 2 mg/ml HCQ. […] After the application of carvacrol for 5 days, the external appearance of mice was photographed and then sampled. The external appearance was graded based on three aspects: thickness, erythema/bleeding, and dryness/desquamation, with severity assessed on a score of 0 to 4. The degree of thickness was measured by the thickness of the skin in H&E staining. Skin tissues were either fixed in 4% paraformaldehyde or placed in PBS buffer containing 1% protease inhibitor, facilitating subsequent steps of paraffin embedding or ELISA experiments.
Mice were sacrificed 24 h after the last dose of treatment. Mouse dorsal skin was removed with scissors and forceps before being fixed with 4% paraformaldehyde. Paraffin-embedded tissues were sectioned and stained with H&E. Pictures of stained sections were acquired with a Nikon Eclipse Ti-S microscope with a charge-coupled device camera (DS-Ri2, Nikon).

Assay [4] deals with TNF-α, IL-6, IgE, IL-4 in mouse dorsal skin tissues. Description: Carvacrol-induced AD-like mouse model: inflammatory factors by ELISA. In kind it is in vivo. As for the experimental part: as §3, §4
Animal skin tissues were placed in PBS buffer containing 1% protease inhibitors, then homogenized, and centrifuged for supernatants. Cytokine concentrations of supernatants (IL-4, IL-6, TNF-α, and IgE) were measured using ELISA kits (Tsingke) according to the manufacturer's instructions. The absorption at 450 nm was measured by a microplate reader (Thermo Multiskan MK3).

[5] abbreviates: DXM 1 mg/ml topical with 2% carvacrol.

The structures appear in SMILES notation.

Turning to `NCCOB(c1ccccc1)c1ccccc1` [2-APB, 2-aminoethoxydiphenylborate], the “wash-off time constant of TRPV3 current” value on TRPV3 [1] came out at 4.05 ± 0.73 s. On TRPV3 [2], the “TRPV3 channel open probability (Po)” value was 0.89 ± 0.06 and the single-channel conductance stood at 90.69 ± 2.67 pS. Further, the “calcium influx, area under the curve (AUC) of 2-APB activation” value at TRPV3 [3] (1 mM 2-APB alone) is 22.92 ± 1.44.

In the assay on C57BL/6J male mice (2% carvacrol alone or with HCQ 2 mg/ml), `Cc1ccc(C(C)C)cc1O` [carvacrol] gave a dry desquamation score of 3.17 ± 0.31. Moreover, the erythema score with C57BL/6J male mice worked out at 3.67 ± 0.21. In addition, at TRPV3 [1], the “wash-off time constant of TRPV3 current” value was found to be 1.43 ± 0.38 s.

On to `C[C@@H]1C[C@H]2[C@@H]3CCC4=CC(=O)C=C[C@]4(C)[C@@]3(F)[C@@H](O)C[C@]2(C)[C@@]1(O)C(=O)CO` [DXM, dexamethasone], for which the erythema score in the assay with C57BL/6J male mice worked out at 2.83 ± 0.17. Besides, in assay [4] (setting [5]), the “effect on IL-6 and TNF-α” value is listed as “no significant effect”; the “effect on serum IgE levels” value is given as “reduces”. Also, the “IL-4 levels compared to the model group” value in assay [4] (mouse tissues, HCQ 2 mg/ml or DXM 1 mg/ml topical with 2% carvacrol) is reported as “effectively reduced”.

For the molecule `C[C@H](CCC(=O)O)C[C@H](C)C[C@H](C)C(=O)/C=C(\O)[C@H](C)C[C@H](C)C/C=C/[C@@H](C)[C@@H](O)[C@@H](C)[C@@H](O)C[C@@H]1CC[C@@](C)([C@H]2CC[C@@](C)([C@@H](C)O)O2)O1` [ionomycin], the “calcium influx, area under the curve (AUC), positive control” value at TRPV3 [3] (10 μM ionomycin) was 41.59 ± 1.50.
